In brackets after ≈: the same amount, converted by molar mass. Marks after values point to notes of the source that are not given here.
Tests used:
APEC O15 = test: MIC and MBC determination in M63 media; format: cell-based; details: Escherichia coli
APEC O78 [1] = test: Primary screening, growth inhibition of APEC O78; format: cell-based, Escherichia coli; details: 100 µM SM; no APEC recovered on LB agar subculture
Protocol: To identify the APEC growth inhibitors, SM library was screened against APEC O78 which is one of the most frequently isolated APEC serotypes from avian colibacillosis cases. One microlitre SMs (final concentration of 100 µM) were added using a slotted pin tool (V and P Scientific, San Diego, CA, USA) to the wells of the 96-well plate containing 100 µL of overnight grown 0.05 OD600 (7 × 10^7 CFU/mL) adjusted APEC culture. Controls (four replicates/plate) containing 1 µL of 100% DMSO (final concentration of 1%), 1 µL chloramphenicol (CHL, #C0378 Sigma-Aldrich) (20 µg/mL), 1 µL kanamycin (KAN, #60615 Sigma-Aldrich) (50 µg/mL), and 100 µL of M63 media were included. To determine the effect of DMSO on APEC growth, antimicrobial activity of DMSO was determined at different concentrations (1% to 32%) in a separate experiment. Plate was then incubated at 37 °C for 12 h in Sunrise - Absorbance microplate reader (Tecan Group Ltd. San Jose, CA) with kinetic OD600 measurement every 30 mins. The quality of screening was assessed by calculating the Z′-score as described previously. The growth inhibition of APEC was calculated by using the formula as previously described[13],[14]. The SMs inhibiting at least 80% of the APEC growth were selected as primary hits. […]

APEC O8 = test: MIC and MBC determination in M63 media; format: cell-based; details: Escherichia coli
APEC O115 = test: MIC and MBC determination in M63 media; format: cell-based; details: Escherichia coli
APEC O2 = test: MIC and MBC determination in M63 media; format: cell-based; details: Escherichia coli
APEC O78-53 = test: MIC and MBC determination in M63 media; format: cell-based; details: Escherichia coli; APEC O78-53, M63 media
Protocol: (§1) One microlitre SM of each concentration was transferred to each well of a 96-well plate containing 100 µL of the 0.05 OD600 adjusted APEC O78 culture in M63 media. Growth was monitored in Sunrise - Absorbance microplate reader as described above. MIC was indicated by lowest concentration of SM with non-elevated OD600 measurement. MBC was determined by absence of APEC growth on LB agar plate following subculture. […] Two independent experiments were conducted.

APEC O78 [2] = test: Loss of 260/280 nm absorbing materials assay; format: cell-based, Escherichia coli; details: 2X MBC, 1 h; for Absorbance 280 nm of treated supernatant: DMSO 2.58; for Absorbance 280 nm of treated supernatant / Absorbance 260 nm of treated supernatant: superscript a P < 0.05 vs DMSO; for Absorbance 260 nm of treated supernatant: DMSO 3.77
Protocol: Membrane permeability assays (crystal violet (CV) uptake and loss of 260/280 nm absorbing materials) were conducted as described previously. […] CV uptake was measured using the formula: (OD DMSO − OD SM/OD DMSO × 100). Two independent experiments in duplicates were conducted.

APEC O2-211 = test: MIC and MBC determination in M63 media; format: cell-based; details: Escherichia coli; APEC O2-211, M63 media
APEC O78 [3] = test: MIC and MBC determination in M63 media; format: cell-based, Escherichia coli; details: for MIC / MBC: Escherichia coli; for MBC: subculture on LB agar
Protocol: as §1

APEC O1 = test: MIC and MBC determination in M63 media; format: cell-based; details: Escherichia coli
APEC O18 = test: MIC and MBC determination in M63 media; format: cell-based; details: Escherichia coli
[4] = test system: STEC O157 and O26 strains; test: Activity against STEC strains at 100 µM in M63 media; format: cell-based, Escherichia coli
APEC O78 [5] = test: Scanning electron microscopy; format: cell-based, Escherichia coli; details: 2X MBC
Protocol: The SMs treated APEC O78 cultures prepared above were also processed for scanning electron microscopy (SEM) as described previously. […] Briefly, one volume of bacterial culture was mixed with one volume of fixative (3% glutaraldehyde, 1% paraformaldehyde in 0.1 M potassium phosphate buffer, pH 7.2), and incubated at 4 °C overnight. The fixed bacterial cells were then centrifuged for 5 mins at 1,200 × g, washed twice with PBS, and resuspended in 1% osmium tetroxide for 1 h at room temperature in the dark, followed by serial dehydration of the sample in ethanol and platinum splatter-coating. Visualization and imaging of the sample was performed using a Hitachi S-4700 scanning electron microscope.

[6] = test system: E. coli Nissle 1917 and E. coli G58-1; test: Effect against beneficial microbes; format: cell-based, Escherichia coli; details: 100 µM
Protocol: SMs were screened against different beneficial microbes to determine their specificity as described previously. SMs were added at 100 µM to 100 µL of 0.05 OD600 adjusted bacterial cultures in specific growth media in 96-well plate, and plate was incubated under indicated conditions. The specific growth media and conditions required for beneficial microbes limited the use of minimal media. Following incubation, endpoint OD600 was measured and cultures from the wells with non-elevated OD600 were plated on selective agar plates to determine the bactericidal effect.

E. coli BW25113 = test system: E. coli BW25113; parameters: method as in https://pubchem.ncbi.nlm.nih.gov/bioassay/710; details: 100 µM; ref https://pubchem.ncbi.nlm.nih.gov/bioassay/710; cited from earlier work

SMILES	MBC (APEC O15) [µM]	MIC (APEC O15) [µM]	MBC (APEC O8) [µM]	MIC (APEC O8) [µM]	MBC (APEC O115) [µM]	MIC (APEC O115) [µM]	MBC (APEC O2) [µM]	MIC (APEC O2) [µM]	MBC (APEC O78-53) [µM]	MIC (APEC O78-53) [µM]	280 nm absorbing materials in supernatant compared with DMSO (APEC O78 [2])	Absorbance 280 nm of treated supernatant (APEC O78 [2])	Absorbance 260 nm of treated supernatant (APEC O78 [2])	MBC (APEC O2-211) [µM]	MIC (APEC O2-211) [µM]	MIC (APEC O78 [3]) [µM]	MBC (APEC O78 [3]) [µM]	MBC (APEC O1) [µM]	MIC (APEC O1) [µM]	MBC (APEC O18) [µM]	further results
CC1CCCN(CCC(=O)c2ccc(Br)cc2)C1 (stereo not shown) [SM1]	250 (≈ 77.6 µg/mL)	200 (≈ 62 µg/mL)	200 (≈ 62 µg/mL)	200 (≈ 62 µg/mL)	200 (≈ 62 µg/mL)	200 (≈ 62 µg/mL)	200 (≈ 62 µg/mL)	200 (≈ 62 µg/mL)	200 (≈ 62 µg/mL)	200 (≈ 62 µg/mL)	significantly (P < 0.05, Student’s t-test) increased	3.08^a	4.00^a	200 (≈ 62 µg/mL)	200 (≈ 62 µg/mL)	200 (≈ 62 µg/mL)	200 (≈ 62 µg/mL)	250 (≈ 77.6 µg/mL)	200 (≈ 62 µg/mL)	200 (≈ 62 µg/mL)	bactericidal effect in primary screening (APEC O78 [1]): bactericidal; 260 nm absorbing materials in supernatant compared with DMSO (APEC O78 [2]): significantly (P < 0.05, Student’s t-test) increased; MBC relative to MIC (APEC O78 [3]): identical to MIC; MIC (APEC O18): 200 µM (≈ 62 µg/mL); bactericidal activity against STEC strains [4]: not cidal
COc1cc(CNCCc2ccc3ccccc3c2)ccc1OCC(O)CN1CCCC1 (stereo not shown) [SM2]	100 (≈ 43.5 µg/mL)	100 (≈ 43.5 µg/mL)	200 (≈ 86.9 µg/mL)	100 (≈ 43.5 µg/mL)	200 (≈ 86.9 µg/mL)	200 (≈ 86.9 µg/mL)	250 (≈ 109 µg/mL)	200 (≈ 86.9 µg/mL)	200 (≈ 86.9 µg/mL)	100 (≈ 43.5 µg/mL)	significantly (P < 0.05, Student’s t-test) increased	2.86^a	3.71	100 (≈ 43.5 µg/mL)	100 (≈ 43.5 µg/mL)	100 (≈ 43.5 µg/mL)	100 (≈ 43.5 µg/mL)	250 (≈ 109 µg/mL)	200 (≈ 86.9 µg/mL)	200 (≈ 86.9 µg/mL)	MBC relative to MIC (APEC O78 [3]): identical to MIC; MIC (APEC O18): 100 µM (≈ 43.5 µg/mL); bactericidal activity against STEC strains [4]: not cidal
COc1cc(CNCCc2ccc(C)cc2)ccc1OCC(O)CN1CCCC1 (stereo not shown) [SM3]	100 (≈ 39.9 µg/mL)	100 (≈ 39.9 µg/mL)	100 (≈ 39.9 µg/mL)	100 (≈ 39.9 µg/mL)	100 (≈ 39.9 µg/mL)	100 (≈ 39.9 µg/mL)	200 (≈ 79.7 µg/mL)	100 (≈ 39.9 µg/mL)	200 (≈ 79.7 µg/mL)	100 (≈ 39.9 µg/mL)	significantly (P < 0.05, Student’s t-test) increased	2.84^a	3.77	100 (≈ 39.9 µg/mL)	100 (≈ 39.9 µg/mL)	100 (≈ 39.9 µg/mL)	100 (≈ 39.9 µg/mL)	200 (≈ 79.7 µg/mL)	100 (≈ 39.9 µg/mL)	100 (≈ 39.9 µg/mL)	cell morphology in SEM (APEC O78 [5]): blebbing and pore at single cell pole, respectively; MBC relative to MIC (APEC O78 [3]): identical to MIC; MIC (APEC O18): 100 µM (≈ 39.9 µg/mL)
CC1CCC(C(C)C)C(OC(=O)Cn2c[n+](CC(=O)OC3CC(C)CCC3C(C)C)c3ccccc32)C1 (stereo not shown) [SM4]	25	25	25	25	25	25	50	25	50	25	significantly (P < 0.05, Student’s t-test) increased	2.69^a	3.91^a	25	25	25	50	50	25	50	cell morphology in SEM (APEC O78 [5]): severe wrinkling and multiple blebbing throughout the cells (membrane disruptors); 260 nm absorbing materials in supernatant compared with DMSO (APEC O78 [2]): significantly (P < 0.05, Student’s t-test) increased; MIC (APEC O18): 25 µM
CCN1/C(=C/c2ccc3ccccc3[n+]2CC)C=Cc2ccccc21 [SM9]	100	25	50	25	50	25	50	25	25	25	significantly (P < 0.05, Student’s t-test) increased	2.78^a	3.99^a	25	25	25	50	50	25	100	effect on E. coli Nissle 1917 and E. coli G58-1 [6]: did not have effect; 260 nm absorbing materials in supernatant compared with DMSO (APEC O78 [2]): significantly (P < 0.05, Student’s t-test) increased; growth inhibition of E. coli BW25113 (E. coli BW25113): 57%; MIC (APEC O18): 25 µM
CC(=O)OC(C(Br)C(=O)c1ccc([N+](=O)[O-])cc1)C(Cl)(Cl)Cl (stereo not shown) [SM10]	100 (≈ 43.3 µg/mL)	50 (≈ 21.7 µg/mL)	50 (≈ 21.7 µg/mL)	50 (≈ 21.7 µg/mL)	50 (≈ 21.7 µg/mL)	25 (≈ 10.8 µg/mL)	50 (≈ 21.7 µg/mL)	25 (≈ 10.8 µg/mL)	50 (≈ 21.7 µg/mL)	25 (≈ 10.8 µg/mL)	significantly (P < 0.05, Student’s t-test) increased	2.73^a	3.98^a	50 (≈ 21.7 µg/mL)	25 (≈ 10.8 µg/mL)	25 (≈ 10.8 µg/mL)	50 (≈ 21.7 µg/mL)	25 (≈ 10.8 µg/mL)	25 (≈ 10.8 µg/mL)	100 (≈ 43.3 µg/mL)	effect on E. coli Nissle 1917 and E. coli G58-1 [6]: did not have effect; cell morphology in SEM (APEC O78 [5]): shortened cells (~0.5 µM) and blebbing at both cell poles; 260 nm absorbing materials in supernatant compared with DMSO (APEC O78 [2]): significantly (P < 0.05, Student’s t-test) increased; MIC (APEC O18): 25 µM (≈ 10.8 µg/mL)
COc1ccc(CCN(Cc2cc3c(cc2Cl)OCO3)CC2CCN(C)CC2)cc1 [SM11]	100 (≈ 43.1 µg/mL)	100 (≈ 43.1 µg/mL)	200 (≈ 86.2 µg/mL)	200 (≈ 86.2 µg/mL)	200 (≈ 86.2 µg/mL)	200 (≈ 86.2 µg/mL)	200 (≈ 86.2 µg/mL)	100 (≈ 43.1 µg/mL)	200 (≈ 86.2 µg/mL)	100 (≈ 43.1 µg/mL)	significantly (P < 0.05, Student’s t-test) increased	2.89^a	4.00^a	100 (≈ 43.1 µg/mL)	100 (≈ 43.1 µg/mL)	100 (≈ 43.1 µg/mL)	100 (≈ 43.1 µg/mL)	100 (≈ 43.1 µg/mL)	100 (≈ 43.1 µg/mL)	200 (≈ 86.2 µg/mL)	260 nm absorbing materials in supernatant compared with DMSO (APEC O78 [2]): significantly (P < 0.05, Student’s t-test) increased; MBC relative to MIC (APEC O78 [3]): identical to MIC; MIC (APEC O18): 200 µM (≈ 86.2 µg/mL); bactericidal activity against STEC strains [4]: not cidal
